Laboratory results from patent US20260200920A1, “SUBSTITUTED AMINOPYRIDINE COMPOUNDS FOR USE AS AKT1 INHIBITORS” (Atavistik Bio, Inc., priority 2023, published 2026).

Experiments:
[1] = biological target: T1, human recombinant kinase full-length wildtype AKT1 (Homo sapiens, UniProt P31749); experiment: AKT1 kinase assay (wildtype, TR-FRET, Lance); assay type: biochemical; conditions: 0.6 nM wildtype AKT1, 50 nM Ulight-CREBtide, either 50 μM ATP or 2 mM ATP, 60 min at RT
T1 construct: Purified human recombinant kinase full-length wildtype AKT1 was expressed in insect cells; made in house; host or cells: insect cells
Procedure, shortened: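 TR-FRET 665/620 ratio quantified phospho-CREBtide formed by PDPK1-activated full-length human AKT1 (0.6 nM, insect-cell-derived) over 60 min at RT with 50 nM ULight-CREBtide and either 50 μM or 2 mM ATP. Compounds were preincubated 15 min with enzyme; IC50 came from 4-parameter fits of 10-point duplicates.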

[2] = biological target: T2, human recombinant kinase full-length AKT1 E17K (Homo sapiens, UniProt P31749, E17K); experiment: AKT1 E17K kinase assay (TR-FRET, Lance); assay type: biochemical; conditions: 0.6 nM AKT1 E17K, 50 nM Ulight-CREBtide, either 50 μM ATP or 2 mM ATP, 60 min at RT
T2 construct: Purified human recombinant kinase full-length AKT1 E17K was expressed in insect cells; made in house; host or cells: insect cells
Procedure, shortened: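 IC50 came from a 10-point, 4-parameter fit of the 665/620 TR-FRET ratio read with Eu-anti-phospho-CREB (Ser133). Reaction at RT for 60 min after 15 min compound preincubation, using 0.6 nM PDPK1-activated full-length AKT1 E17K (insect-cell), 50 nM Ulight-CREBtide, ATP at 50 μM or 2 mM, HEPES pH 7.5, 1% DMSO.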

T1 sequence (P31749 whole entry): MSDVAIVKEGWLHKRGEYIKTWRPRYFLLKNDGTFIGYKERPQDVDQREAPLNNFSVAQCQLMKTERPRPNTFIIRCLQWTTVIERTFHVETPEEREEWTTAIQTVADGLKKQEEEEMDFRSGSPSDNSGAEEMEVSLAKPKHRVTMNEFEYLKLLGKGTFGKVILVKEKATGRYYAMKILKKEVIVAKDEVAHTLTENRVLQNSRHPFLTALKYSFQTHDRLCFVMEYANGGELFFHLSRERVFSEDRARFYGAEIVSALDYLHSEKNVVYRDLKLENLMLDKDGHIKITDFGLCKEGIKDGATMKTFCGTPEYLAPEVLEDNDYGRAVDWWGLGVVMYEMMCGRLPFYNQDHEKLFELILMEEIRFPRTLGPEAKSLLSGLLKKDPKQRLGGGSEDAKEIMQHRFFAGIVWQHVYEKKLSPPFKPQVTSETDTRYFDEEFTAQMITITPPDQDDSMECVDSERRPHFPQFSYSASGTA
T2 sequence (P31749 whole entry E17K): as the sequence (P31749 whole entry) above, with E17K counted along it

IC50 [1] [nM] | IC50 [2] [nM] | SMILES
< 20000 | < 500 | Nc1ncccc1-c1nc2ccc(-c3ccccc3)nc2n1-c1ccc(C2CN(C[C@H]3CC[C@H](C(=O)O)CC3)C2)cc1 [Compound I-57, (1r,4r)-4-((3-(4-(2-(2-aminopyridin-3-yl)-5-phenyl-3H-imidazo[4,5-b]pyridin-3-yl)phenyl)azetidin-1-yl)methyl)cyclohexane-1-carboxylic acid]
< 20000 | < 500 | Nc1ncccc1-c1nc2ccc(-c3ccccc3)nc2n1-c1ccc(C2CN(C[C@@H]3CC[C@H](C(=O)O)C3)C2)cc1 [Compound I-58, (1S,3R)-3-((3-(4-(2-(2-aminopyridin-3-yl)-5-phenyl-3H-imidazo[4,5-b]pyridin-3-yl)phenyl)azetidin-1-yl)methyl)cyclopentane-1-carboxylic acid]
< 20000 | < 500 | Nc1ncccc1-c1nc2ccc(-c3ccccc3)nc2n1-c1ccc(C2CN(C[C@@H]3CC[C@@H](C(=O)O)C3)C2)cc1 [Compound I-61, (1R,3R)-3-((3-(4-(2-(2-aminopyridin-3-yl)-5-phenyl-3H-imidazo[4,5-b]pyridin-3-yl)phenyl)azetidin-1-yl)methyl)cyclopentane-1-carboxylic acid]
< 20000 | 500 to 2000 | Nc1ncccc1-c1nc2ccc(-c3ccccc3)nc2n1-c1ccc(C2CN(C[C@H]3CC[C@H](C(=O)O)CC3)C2)c(F)c1 [Compound I-62, (1r,4r)-4-((3-(4-(2-(2-aminopyridin-3-yl)-5-phenyl-3H-imidazo[4,5-b]pyridin-3-yl)-2-fluorophenyl)azetidin-1-yl)methyl)cyclohexane-1-carboxylic acid]
< 20000 | 500 to 2000 | Nc1ncccc1-c1nc2ccc(-c3ccccc3)nc2n1-c1ccc(C2CN(C[C@H]3CC[C@@H](C(=O)O)CC3)C2)c(F)c1 [Compound I-63, (1s,4s)-4-((3-(4-(2-(2-aminopyridin-3-yl)-5-phenyl-3H-imidazo[4,5-b]pyridin-3-yl)-2-fluorophenyl)azetidin-1-yl)methyl)cyclohexane-1-carboxylic acid]
< 20000 | 500 to 2000 | Nc1ncccc1-c1nc2ccc(-c3ccc(F)cc3)nc2n1-c1ccc(C2CN(C[C@H]3CC[C@H](C(=O)O)CC3)C2)cc1 [Compound I-66, (1r,4r)-4-((3-(4-(2-(2-aminopyridin-3-yl)-5-(4-fluorophenyl)-3H-imidazo[4,5-b]pyridin-3-yl)phenyl)azetidin-1-yl)methyl)cyclohexane-1-carboxylic acid]
< 20000 | ≥ 2000 | Nc1ncccc1-c1nc2cc(-c3ccc(F)cc3)cnc2n1-c1ccc(C2CN(C[C@H]3CC[C@H](C(=O)O)CC3)C2)cc1 [Compound I-67, (1r,4r)-4-((3-(4-(2-(2-aminopyridin-3-yl)-6-(4-fluorophenyl)-3H-imidazo[4,5-b]pyridin-3-yl)phenyl)azetidin-1-yl)methyl)cyclohexane-1-carboxylic acid]

Second part, the molecule before the results:

SMILES | IC50 [1] [nM] | IC50 [2] [nM]
Nc1ncccc1-c1nc2ccc(-c3ccccc3)nc2n1-c1ccc(CNC(=O)C2CC(=O)CC(=O)C2)cc1 [Compound I-38, N-(4-(2-(2-aminopyridin-3-yl)-5-phenyl-3H-imidazo[4,5-b]pyridin-3-yl)benzyl)-3,5-dioxocyclohexane-1-carboxamide] | < 20000 | < 500
CC(C)(C(=O)O)C1CCN(c2ccc(-n3c(-c4cccnc4N)nc4ccc(-c5ccccc5)nc43)cn2)C1 (stereo not shown) [Compound I-39, 2-(1-(5-(2-(2-aminopyridin-3-yl)-5-phenyl-3H-imidazo[4,5-b]pyridin-3-yl)pyridin-2-yl)pyrrolidin-3-yl)-2-methylpropanoic acid] | < 20000 | ≥ 2000
Nc1ncccc1-c1nc2ccc(-c3ccc(F)cc3)nc2n1-c1ccc(NC(=O)[C@H]2CC[C@H](C(=O)O)CC2)nc1 [Compound I-40, (1r,4r)-4-((5-(2-(2-aminopyridin-3-yl)-5-(4-fluorophenyl)-3H-imidazo[4,5-b]pyridin-3-yl)pyridin-2-yl)carbamoyl)cyclohexane-1-carboxylic acid] | < 20000 | < 500
Nc1ncccc1-c1nc2ccc(-n3cccn3)nc2n1-c1ccc(NC(=O)[C@H]2CC[C@H](C(=O)O)CC2)nc1 [Compound I-41, (1r,4r)-4-((5-(2-(2-aminopyridin-3-yl)-5-(1H-pyrazol-1-yl)-3H-imidazo[4,5-b]pyridin-3-yl)pyridin-2-yl)carbamoyl)cyclohexane-1-carboxylic acid] | < 20000 | < 500
Nc1ncccc1-c1nc2ccc(-c3ccccc3)nc2n1-c1ccc(NC[C@H]2CC[C@H](C(=O)O)CC2)nc1 [Compound I-43, (1r,4r)-4-(((5-(2-(2-aminopyridin-3-yl)-5-phenyl-3H-imidazo[4,5-b]pyridin-3-yl)pyridin-2-yl)amino)methyl)cyclohexane-1-carboxylic acid] | < 20000 | < 500
Nc1ncccc1-c1nc2ccc(-c3ccccc3)nc2n1-c1ccc(NC(=O)C2CC3(CC(C(=O)O)C3)C2)cc1 (stereo not shown) [Compound I-46, 6-[[4-[2-(2-amino-3-pyridyl)-5-phenyl-imidazo[4,5-b]pyridin-3-yl]phenyl]carbamoyl]spiro[3.3]heptane-2-carboxylic acid] | < 20000 | < 500
Nc1ncccc1-c1nc2ccc(-c3ccccc3)nc2n1-c1ccc(NC(=O)C2CC3(CC(C(=O)O)C3)C2)c(F)c1 (stereo not shown) [Compound I-47, 6-((4-(2-(2-aminopyridin-3-yl)-5-phenyl-3H-imidazo[4,5-b]pyridin-3-yl)-2-fluorophenyl)carbamoyl)spiro[3.3]heptane-2-carboxylic acid] | < 20000 | < 500
Nc1ncccc1-c1nc2ccc(-c3ccccc3)nc2n1-c1ccc(NC(=O)C2CC3C(C2)C3C(=O)O)nc1 (stereo not shown) [Compound I-48, 3-((5-(2-(2-aminopyridin-3-yl)-5-phenyl-3H-imidazo[4,5-b]pyridin-3-yl)pyridin-2-yl)carbamoyl)bicyclo[3.1.0]hexane-6-carboxylic acid] | < 20000 | < 500
Nc1ncccc1-c1nc2ccc(-c3ccccc3)nc2n1-c1ccc(NC(=O)N2CCC(C(=O)O)C2)cc1 (stereo not shown) [Compound I-52, 1-[[4-[2-(2-amino-3-pyridyl)-5-phenyl-imidazo[4,5-b]pyridin-3-yl]phenyl]carbamoyl]pyrrolidine-3-carboxylic acid] | < 20000 | < 500
Nc1ncccc1-c1nc2ccc(-c3ccccc3)nc2n1-c1ccc(NC(=O)N2CCC(C(=O)O)CC2)cc1 [Compound I-53, 1-[[4-[2-(2-amino-3-pyridyl)-5-phenyl-imidazo[4,5-b]pyridin-3-yl]phenyl]carbamoyl]piperidine-4-carboxylic acid] | < 20000 | < 500
C[C@H]([C@H]1CC[C@H](C(=O)O)CC1)N1CC(c2ccc(-n3c(-c4cccnc4N)nc4ccc(-c5ccccc5)nc43)cc2)C1 [Compound I-59, (1R,4r)-4-((R)-1-(3-(4-(2-(2-aminopyridin-3-yl)-5-phenyl-3H-imidazo[4,5-b]pyridin-3-yl)phenyl)azetidin-1-yl)ethyl)cyclohexane-1-carboxylic acid] | < 20000 | < 500
C[C@@H]([C@H]1CC[C@H](C(=O)O)CC1)N1CC(c2ccc(-n3c(-c4cccnc4N)nc4ccc(-c5ccccc5)nc43)cc2)C1 [Compound I-60, (1S,4r)-4-((S)-1-(3-(4-(2-(2-aminopyridin-3-yl)-5-phenyl-3H-imidazo[4,5-b]pyridin-3-yl)phenyl)azetidin-1-yl)ethyl)cyclohexane-1-carboxylic acid] | < 20000 | 500 to 2000
Nc1ncccc1-c1nc2ccc(-c3ccccc3)nc2n1-c1ccc(C2CN(CC3CCC(C(=O)O)CC3)C2)nc1 (stereo not shown) [Compound I-64, 4-((3-(5-(2-(2-aminopyridin-3-yl)-5-phenyl-3H-imidazo[4,5-b]pyridin-3-yl)pyridin-2-yl)azetidin-1-yl)methyl)cyclohexane-1-carboxylic acid] | < 20000 | ≥ 2000
Nc1ncccc1-c1nc2cc(-c3ccccc3)cnc2n1-c1ccc(C2CN(C[C@H]3CC[C@H](C(=O)O)CC3)C2)cc1 [Compound I-65, (1r,4r)-4-((3-(4-(2-(2-aminopyridin-3-yl)-6-phenyl-3H-imidazo[4,5-b]pyridin-3-yl)phenyl)azetidin-1-yl)methyl)cyclohexane-1-carboxylic acid] | < 20000 | ≥ 2000
Nc1ncccc1-c1nc2ccc(-c3ccccn3)cc2n1-c1ccc(C2CN(C[C@H]3CC[C@H](C(=O)O)CC3)C2)cc1 [Compound I-68, (1r,4r)-4-((3-(4-(2-(2-aminopyridin-3-yl)-6-(pyridin-2-yl)-1H-benzo[d]imidazol-1-yl)phenyl)azetidin-1-yl)methyl)cyclohexane-1-carboxylic acid] | < 20000 | ≥ 2000
CC1(C)C[C@@H](CN2CC(c3ccc(-n4c(-c5cccnc5N)nc5ccc(-c6ccccc6)nc54)cc3)C2)CC[C@H]1C(=O)O [Compound I-69, (1R,4S)-4-((3-(4-(2-(2-aminopyridin-3-yl)-5-phenyl-3H-imidazo[4,5-b]pyridin-3-yl)phenyl)azetidin-1-yl)methyl)-2,2-dimethylcyclohexane-1-carboxylic acid] | < 20000 | < 500
